Source: patent US9346815B2, “5-chloro-2-difluoromethoxyphenyl pyrazolopyrimidine compounds, compositions and methods of use thereof” (Genentech, Inc., priority 2014, dated 2016)

Legend:
[1] = system: JAK1-dependent STAT6 phosphorylation downstream of IL-13 stimulation in BEAS-2B human bronchial epithelial cells; assay: JAK1 pathway assay in BEAS-2B cells (IL-13-pSTAT6, MSD); assay type: cell-based; details: read-out: IL13-pSTAT6 EC50 (uM)_BEAS-2B
Method: JAK1 Pathway Assay in Cell Lines was Carried Out as Follows:
Inhibitor potency (EC50) was determined in cell-based assays designed to measure JAK1 dependent STAT phosphorylation.
In one assay approach, TF-1 human erythroleukemia cells obtained from the American Type Culture Collection (ATCC; Manassas, Va.) were used to measure JAK1-dependent STAT6 phosphorylation downstream of IL-13 stimulation. Prior to use in the assays, TF-1 cells were starved of GM-CSF overnight in OptiMEM medium (Life Technologies, Grand Island, N.Y.) supplemented with 0.5% charcoal/dextran stripped fetal bovine serum (FBS), 0.1 mM non-essential amino acids (NEAA), and 1 mM sodium pyruvate. The assays were run in 384-well plates in serum-free OptiMEM medium using 300,000 cells per well. In a second assay approach, BEAS-2B human bronchial epithelial cells obtained from ATCC were plated at 100,000 cells per well of a 96-well plate one day prior to the experiment. The BEAS-2B assay was run in complete growth medium (bronchial epithelial basal medium plus bulletkit; Lonza; Basel, Switzerland).
Test compounds were serially diluted 1:2 in DMSO and then diluted 1:50 in medium just before use. Diluted compounds were added to the cells, for a final DMSO concentration of 0.2%, and incubated for 30 min (for the TF-1 assay) or 1 hr (for the BEAS-2B assay) at 37° C. Then, cells were stimulated with human recombinant cytokine at their respective EC90 concentrations, as previously determined for each individual lot. Cells were stimulated with IL-13 (R&D Systems, Minneapolis, Minn.) for 15 min at 37° C. The TF-1 cell reactions were stopped by the direct addition of 10× lysis buffer (Cell Signaling Technologies, Danvers, Mass.), whereas the BEAS-2B cell incubations were halted by the removal of medium and addition of 1× lysis buffer. The resultant samples were frozen in the plates at −80° C. Compound mediated inhibition of STAT6 phosphorylation was measured in the cell lysates using MesoScale Discovery (MSD) technology (Gaithersburg, Md.).

[2] = target: isolated recombinant JAK2 kinase domain (Homo sapiens (Human), UniProt O60674); assay: JAK2 enzyme assay (Caliper LabChip, peptide phosphorylation); assay type: biochemical; details: 25 μM ATP
[3] = target: isolated recombinant JAK1 kinase domain (Homo sapiens (Human), UniProt P23458); assay: JAK1 enzyme assay (Caliper LabChip, peptide phosphorylation); assay type: biochemical; details: isolated recombinant JAK1 kinase domain, 25 μM ATP
Sequence of isolated recombinant JAK1 kinase domain (P23458 875-1153): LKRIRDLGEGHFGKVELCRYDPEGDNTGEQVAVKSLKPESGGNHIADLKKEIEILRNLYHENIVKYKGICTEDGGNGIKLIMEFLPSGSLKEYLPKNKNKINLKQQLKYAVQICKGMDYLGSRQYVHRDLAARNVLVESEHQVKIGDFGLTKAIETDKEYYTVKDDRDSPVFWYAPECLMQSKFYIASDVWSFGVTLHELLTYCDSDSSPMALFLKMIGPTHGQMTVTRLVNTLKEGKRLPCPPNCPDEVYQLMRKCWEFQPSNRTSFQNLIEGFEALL

Sequence of isolated recombinant JAK2 kinase domain (O60674 849-1124): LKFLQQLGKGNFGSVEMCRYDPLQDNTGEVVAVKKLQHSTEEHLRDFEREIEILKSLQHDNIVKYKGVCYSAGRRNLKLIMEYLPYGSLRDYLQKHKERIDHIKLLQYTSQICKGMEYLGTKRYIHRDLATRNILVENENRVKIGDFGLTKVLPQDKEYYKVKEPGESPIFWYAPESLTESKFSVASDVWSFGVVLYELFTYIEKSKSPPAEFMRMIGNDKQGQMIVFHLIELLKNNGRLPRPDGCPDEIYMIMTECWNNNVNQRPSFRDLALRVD

Row | SMILES | Ki [2] | Ki [3] | EC50 [1]
1 | CN(C)C(=O)CN1CCN(CC2CCN(C(=O)Cn3cc(NC(=O)c4cnn5cccnc45)c(-c4cc(Cl)ccc4OC(F)F)n3)CC2)CC1 [Example 427, N-(3-(5-chloro-2-(difluoromethoxy)phenyl)-1-(2-(4-((4-(2-(dimethylamino)-2-oxoethyl)piperazin-1-yl)methyl)piperidin-1-yl)-2-oxoethyl)-1H-pyrazol-4-yl)pyrazolo[1,5-a]pyrimidine-3-carboxamide] | 1.25 nM | 0.42 nM | 0.0224 µM
2 | CN1CCCC2CN(C(=O)Cn3cc(NC(=O)c4cnn5cccnc45)c(-c4cc(Cl)ccc4OC(F)F)n3)CC21 (centres unmarked) [Example 440, N-(3-(5-chloro-2-(difluoromethoxy)phenyl)-1-(2-(1-methyl-octahydropyrrolo[3,4-b]pyridin-6-yl)-2-oxoethyl)-1H-pyrazol-4-yl)pyrazolo[1,5-a]pyrimidine-3-carboxamide] | 0.54 nM | 0.46 nM | 0.0068 µM
3 | O=C(Nc1cn(CC(=O)N2CCC(N3CCNCC3=O)CC2)nc1-c1cc(Cl)ccc1OC(F)F)c1cnn2cccnc12 [Example 445, N-(3-(5-chloro-2-(difluoromethoxy)phenyl)-1-(2-oxo-2-(4-(2-oxopiperazin-1-yl)piperidin-1-yl)ethyl)-1H-pyrazol-4-yl)pyrazolo[1,5-a]pyrimidine-3-carboxamide] | 0.87 nM | 0.35 nM | 0.3 µM
4 | N#CC1CCN(C2CCN(C(=O)Cn3cc(NC(=O)c4cnn5cccnc45)c(-c4cc(Cl)ccc4OC(F)F)n3)CC2)C1 (centres unmarked) [Example 409, N-(3-(5-chloro-2-(difluoromethoxy)phenyl)-1-(2-(4-(3-cyanopyrrolidin-1-yl)piperidin-1-yl)-2-oxoethyl)-1H-pyrazol-4-yl)pyrazolo[1,5-a]pyrimidine-3-carboxamide] | 0.89 nM |  | 0.0196 µM
5 | CN(C1CCN(C(=O)Cn2cc(NC(=O)c3cnn4cccnc34)c(-c3cc(Cl)ccc3OC(F)F)n2)CC1)C1COC1 [Example 459, N-(3-(5-chloro-2-(difluoromethoxy)phenyl)-1-(2-(4-(methyl(oxetan-3-yl)amino)piperidin-1-yl)-2-oxoethyl)-1H-pyrazol-4-yl)pyrazolo[1,5-a]pyrimidine-3-carboxamide] |  | 0.3 nM | 0.0075 µM
6 | O=C(O)CCN1CCN(C(=O)Cn2cc(NC(=O)c3cnn4cccnc34)c(-c3cc(Cl)ccc3OC(F)F)n2)CC1 [Example 353, 3-[4-(2-[3-[5-chloro-2-(difluoromethoxy)phenyl]-4-[pyrazolo[1,5-a]pyrimidine-3-amido]-1H-pyrazol-1-yl]acetyl)piperazin-1-yl]propanoic acid] |  | 0.32 nM | 3.61 µM
7 | CN(C1CCN(C(=O)Cn2cc(NC(=O)c3cnn4cccnc34)c(-c3cc(Cl)ccc3OC(F)F)n2)CC1)[C@@H]1CCOC1 [Example 432, N-(3-(5-chloro-2-(difluoromethoxy)phenyl)-1-(2-(4-(methyl((R)-tetrahydrofuran-3-yl)amino)piperidin-1-yl)-2-oxoethyl)-1H-pyrazol-4-yl)pyrazolo[1,5-a]pyrimidine-3-carboxamide] |  | 0.4 nM | 0.0326 µM
8 | O=C(Nc1cn(Cc2cn(C3CCN(C4CCOCC4)CC3)nn2)nc1-c1cc(Cl)ccc1OC(F)F)c1cnn2cccnc12 [Example 457, N-(3-(5-chloro-2-(difluoromethoxy)phenyl)-1-((1-(1-(tetrahydro-2H-pyran-4-yl)piperidin-4-yl)-1H-1,2,3-triazol-4-yl)methyl)-1H-pyrazol-4-yl)pyrazolo[1,5-a]pyrimidine-3-carboxamide] |  | 0.45 nM | 0.0156 µM

Further lines, with some results ahead:

Row | Ki [2] | Ki [3] | SMILES | EC50 [1]
9 | 1.47 nM | 0.59 nM | COC(=O)CCN(C)C1CCN(C(=O)Cn2cc(NC(=O)c3cnn4cccnc34)c(-c3cc(Cl)ccc3OC(F)F)n2)CC1 [Example 345, methyl 3-[[1-(2-[3-[5-chloro-2-(difluoromethoxy)phenyl]-4-[pyrazolo[1,5-a]pyrimidine-3-amido]-1H-pyrazol-1-yl]acetyl)piperidin-4-yl](methyl)amino]propanoate] | 0.0166 µM
10 | 0.3 nM |  | C[C@H](NCCn1cc(NC(=O)c2cnn3cccnc23)c(-c2cc(Cl)ccc2OC(F)F)n1)c1ccccc1 [Example 385, N-[3-[5-chloro-2-(difluoromethoxy)phenyl]-1-(2-[[(1S)-1-phenylethyl]amino]ethyl)-1H-pyrazol-4-yl]pyrazolo[1,5-a]pyrimidine-3-carboxamide] | 0.163 µM
11 | 0.23 nM |  | C[C@@H](NCCn1cc(NC(=O)c2cnn3cccnc23)c(-c2cc(Cl)ccc2OC(F)F)n1)c1ccccc1 [Example 384, N-[3-[5-chloro-2-(difluoromethoxy)phenyl]-1-(2-[[(1R)-1-phenylethyl]amino]ethyl)-1H-pyrazol-4-yl]pyrazolo[1,5-a]pyrimidine-3-carboxamide] | 0.139 µM
12 |  | 1.29 nM | CN1CCN(C/C=C/Cn2cc(NC(=O)c3cnn4cccnc34)c(-c3cc(Cl)ccc3OC(F)F)n2)CC1 [Example 395, N-[3-[5-chloro-2-(difluoromethoxy)phenyl]-1-[(2E)-4-(4-methylpiperazin-1-yl)but-2-en-1-yl]-1H-pyrazol-4-yl]pyrazolo[1,5-a]pyrimidine-3-carboxamide] | 0.0224 µM
13 | 0.51 nM |  | O=C(Nc1cn(CCNCc2cccnc2)nc1-c1cc(Cl)ccc1OC(F)F)c1cnn2cccnc12 [Example 368, N-[3-[5-chloro-2-(difluoromethoxy)phenyl]-1-[2-[(pyridin-3-ylmethyl)amino]ethyl]-1H-pyrazol-4-yl]pyrazolo[1,5-a]pyrimidine-3-carboxamide] | 0.056 µM
14 |  | 3.29 nM | CSCCOC(=O)CNCCn1cc(NC(=O)c2cnn3cccnc23)c(-c2cc(Cl)ccc2OC(F)F)n1 [Example 396, 2-(methylthio)ethyl 2-(2-(3-(5-chloro-2-(difluoromethoxy)phenyl)-4-(pyrazolo[1,5-a]pyrimidine-3-carboxamido)-1H-pyrazol-1-yl)ethylamino)acetate] | 0.0382 µM
15 | 0.8 nM |  | O=C(CN1CCCCC1)Cn1cc(NC(=O)c2cnn3cccnc23)c(-c2cc(Cl)ccc2OC(F)F)n1 [Example 418, N-(3-(5-chloro-2-(difluoromethoxy)phenyl)-1-(2-oxo-3-(piperidin-1-yl)propyl)-1H-pyrazol-4-yl)pyrazolo[1,5-a]pyrimidine-3-carboxamide] | 0.0609 µM
16 | 1.6 nM |  | CCOC(=O)CNC1CCN(C(=O)Cn2cc(NC(=O)c3cnn4cccnc34)c(-c3cc(Cl)ccc3OC(F)F)n2)CC1 [Example 364, ethyl 2-[[1-(2-[3-[5-chloro-2-(difluoromethoxy)phenyl]-4-[pyrazolo[1,5-a]pyrimidine-3-amido]-1H-pyrazol-1-yl]acetyl)piperidin-4-yl]amino]acetate] | 0.0952 µM
17 |  | 1.7 nM | O=C(CN1CCOCC1)Cn1cc(NC(=O)c2cnn3cccnc23)c(-c2cc(Cl)ccc2OC(F)F)n1 [Example 412, N-(3-(5-chloro-2-(difluoromethoxy)phenyl)-1-(3-morpholino-2-oxopropyl)-1H-pyrazol-4-yl)pyrazolo[1,5-a]pyrimidine-3-carboxamide] | 0.0395 µM
